In patent US20230391845A1, “GLP-1, GIP AND GLUCAGON RECEPTOR TRIPLE AGONISTS” (priority 2020, published 2023):
*1 amine or outer side, *2 acyl side, *3 side chain or, on linkers, in order; H or OH if unused. Where a SMILES comes first, the peptide text is derived from it. Side-chain parts run from the residue outwards. [ ]: non-standard residue; d: D form. The star is where a group is joined. C20 diacid = O=C(O)CCCCCCCCCCCCCCCCCCC(=O)*; γGlu = O=C(O)[C@H](CCC(=O)[*:2])N[*:1]; εLys = N[C@@H](CCCCN[*:1])C(=O)[*:2]; Aib = CC(C)(N)C(=O)O

Target: T1, human GIP receptor (Homo sapiens, UniProt P48546)
T1 construct: expressed in transfected cells; host or cells: BHK cells (parent line BHKTS13) containing CRE luciferase
T1 sequence (P48546 22-466): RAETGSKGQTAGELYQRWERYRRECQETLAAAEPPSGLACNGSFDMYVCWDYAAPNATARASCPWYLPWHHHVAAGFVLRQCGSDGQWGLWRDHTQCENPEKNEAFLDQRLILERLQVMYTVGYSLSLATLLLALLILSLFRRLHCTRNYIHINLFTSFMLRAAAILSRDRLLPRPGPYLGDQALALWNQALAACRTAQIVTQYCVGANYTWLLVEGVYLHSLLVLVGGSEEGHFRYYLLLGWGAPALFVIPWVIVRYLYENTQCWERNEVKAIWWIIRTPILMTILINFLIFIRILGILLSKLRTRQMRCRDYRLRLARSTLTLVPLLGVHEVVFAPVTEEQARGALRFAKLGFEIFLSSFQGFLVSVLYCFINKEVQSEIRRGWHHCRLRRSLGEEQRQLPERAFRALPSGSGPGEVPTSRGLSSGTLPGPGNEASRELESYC
Assay: In vitro functional potency (CRE luciferase; whole cells), human GIPR
Assay type: cell-based
Details: BHK CRE luc2P hGIPR whole cells; Table 2; read-out: hGIPR CRE Luc EC50

Row | Compound | EC50
1 | CC[C@H](C)[C@H](NC(=O)[C@H](CO)NC(=O)[C@H](Cc1ccc(O)cc1)NC(=O)[C@H](CC(=O)O)NC(=O)[C@H](CO)NC(=O)[C@@H](NC(=O)[C@H](Cc1ccccc1)NC(=O)[C@@H](NC(=O)CNC(=O)[C@H](Cc1c[nH]cn1)NC(=O)C(C)(C)NC(=O)[C@@H](N)Cc1ccc(O)cc1)[C@@H](C)O)[C@@H](C)O)C(=O)N[C@@H](Cc1ccc(O)cc1)C(=O)N[C@@H](CC(C)C)C(=O)N[C@@H](CCC(=O)O)C(=O)N[C@@H](CCCCNC(=O)[C@@H](N)CCCCNC(=O)[C@@H](N)CCCCNC(=O)CC[C@H](NC(=O)CCCCCCCCCCCCCCCCCCC(=O)O)C(=O)O)C(=O)N[C@@H](CCC(N)=O)C(=O)N[C@@H](C)C(=O)N[C@@H](C)C(=O)NC(C)(C)C(=O)N[C@@H](CCC(=O)O)C(=O)N[C@@H](Cc1ccccc1)C(=O)N[C@H](C(=O)N[C@@H](CCC(N)=O)C(=O)N[C@@H](Cc1c[nH]c2ccccc12)C(=O)N[C@@H](CC(C)C)C(=O)N[C@@H](CC(C)C)C(=O)N[C@@H](CCC(=O)O)C(=O)NCC(=O)NCC(=O)N1CCC[C@H]1C(=O)N[C@@H](CO)C(=O)N[C@@H](CO)C(=O)NCC(=O)N[C@@H](C)C(=O)N1CCC[C@H]1C(=O)N1CCC[C@H]1C(=O)N1CCC[C@H]1C(=O)N[C@@H](CO)C(N)=O)C(C)C [Compound No. 18] (H-Y[Aib]HGTFTSDYSIYLEK([εLys-εLys-γGlu-C20 diacid])QAA[Aib]EFVQWLLEGGPSSGAPPPS-NH2) | 7.1 pM
2 | CC[C@H](C)[C@H](NC(=O)[C@H](CO)NC(=O)[C@H](Cc1ccc(O)cc1)NC(=O)[C@H](CC(=O)O)NC(=O)[C@H](CO)NC(=O)[C@@H](NC(=O)[C@H](Cc1ccccc1)NC(=O)[C@@H](NC(=O)CNC(=O)[C@H](Cc1c[nH]cn1)NC(=O)C(C)(C)NC(=O)[C@@H](N)Cc1c[nH]cn1)[C@@H](C)O)[C@@H](C)O)C(=O)N[C@@H](Cc1ccc(O)cc1)C(=O)N[C@@H](CC(C)C)C(=O)N[C@@H](CC(=O)O)C(=O)N[C@@H](CCCCNC(=O)[C@@H](N)CCCCNC(=O)[C@@H](N)CCCCNC(=O)CC[C@H](NC(=O)CCCCCCCCCCCCCCCCCCC(=O)O)C(=O)O)C(=O)N[C@@H](CCC(N)=O)C(=O)N[C@@H](C)C(=O)N[C@@H](C)C(=O)NC(C)(C)C(=O)N[C@@H](CCC(=O)O)C(=O)N[C@@H](Cc1ccccc1)C(=O)N[C@H](C(=O)N[C@@H](CCC(N)=O)C(=O)N[C@@H](Cc1c[nH]c2ccccc12)C(=O)N[C@@H](CC(C)C)C(=O)N[C@@H](CC(C)C)C(=O)N[C@@H](CCC(=O)O)C(=O)NCC(=O)NCC(=O)N1CCC[C@H]1C(=O)N[C@@H](CO)C(=O)N[C@@H](CO)C(=O)NCC(=O)N[C@@H](C)C(=O)N1CCC[C@H]1C(=O)N1CCC[C@H]1C(=O)N1CCC[C@H]1C(=O)N[C@@H](CO)C(N)=O)C(C)C [Compound No. 28] (H-H[Aib]HGTFTSDYSIYLDK([εLys-εLys-γGlu-C20 diacid])QAA[Aib]EFVQWLLEGGPSSGAPPPS-NH2) | 7.7 pM
